What was measured:
Assay type in all cases: cell-based, cotton (Coker 312)
embryogenic cotton calli = test: Embryogenic callus formation on induction media with ethylene inhibitors; details: 40 calli tested
Protocol: The transgenic calli were removed from the hypocotyls and transferred to a culture containing hormone-free media comprising the following components per liter: 4.4 g MS salts with B5 vitamins; 30 g glucose, pH 5.8; an antioxidant, such as ascorbic acid (10-100 mg); an ethylene inhibitor, such as aminoethoxyvinylglycine at approximately 5 μM; GELRITE or PHYTAGEL (2-3 g); and selective agents as described above. This culture was maintained at 28° C. under conditions of dark or limited lighting. The dark or limited lighting conditions were accomplished using a black bag, a covering of aluminum foil, or by incubating in a dark growth chamber. Alternatively, the transgenic calli may be incubated under green light. The incubation is continued for about eight to ten weeks.
In two separate experiments, the ethylene inhibitors AVG (aminoethoxy-vinylglycine), DNP (2,4-dinitrophenol), and salicylic acid were tested to determine their influence on the induction of embryogenic cotton calli.

[1] = test system: transgenic cotton calli (Coker 312); test: Induction of embryogenesis in transgenic cotton callus on induction media with antioxidant (ascorbic acid)
Protocol: […] This culture was maintained at 28° C. under conditions of dark or limited lighting. The dark or limited lighting conditions were accomplished using a black bag, a covering of aluminum foil, or by incubating in a dark growth chamber. Alternatively, the transgenic calli may be incubated under green light. The incubation is continued for about eight to ten weeks.

cotton embryos = test: Embryo germination on germination media with varying carbohydrate concentration
Protocol: The preparation of Agrobacterium, seed sterilization, seed germination, inoculation, co-culture, and selection were performed as described in Example 1. Embryos were induced as outlined in Examples 2, 3, and 4. After eight weeks, the embryogenic tissue that formed was transferred to an embryo maturation media as described in Examples 5 and 6. Cultures were monitored for the presence of actively growing embryos.
About every four weeks, actively growing tissue and small embryos were removed and placed on fresh maturation media. The embryos were spaced on the culture plates with adequate room for growth. The tissue was returned to the warm room and incubated under the same growth conditions.
Embryos larger than about 5 mm were transferred to a germination media (Stewart and Hsu, Planta 137:113-117, […]) with various carbohydrate concentrations and 0.25 g/L GELRITE. The embryos are incubated at 28° C. in a lighted incubator with a 16/8 day/night cycle.
Various concentrations of glucose and sucrose in the germination media were tested. The germination media comprised sucrose or glucose at concentrations ranging from about 0%-2% (w/v).

[2] = pMON20956 vector, ascorbic acid 100 mg/L
[3] = 0.1% carbohydrate in germination media
[4] = 0.5% carbohydrate in germination media
[5] = 1% carbohydrate in germination media
[6] = 2% carbohydrate in germination media

O=C(O)c1ccccc1O [salicylic acid]
Embryogenic Calli Formed (embryogenic cotton calli; Expt 1 pMON10517, 50 μM): 12 | Frequency of Formation (embryogenic cotton calli; Expt 1 pMON10517, 50 μM): 30% | Embryogenic Calli Formed (embryogenic cotton calli; Expt 2 pMON10079, 50 μM): 17 | Frequency of Formation (embryogenic cotton calli; Expt 2 pMON10079, 50 μM): 43%

O=[N+]([O-])c1ccc(O)c([N+](=O)[O-])c1 [DNP, 2,4-dinitrophenol]
Embryogenic Calli Formed (embryogenic cotton calli; Expt 1 pMON10517, 1 μM): 17 | Frequency of Formation (embryogenic cotton calli; Expt 1 pMON10517, 1 μM): 43% | Embryogenic Calli Formed (embryogenic cotton calli; Expt 2 pMON10079, 1 μM): 16 | Frequency of Formation (embryogenic cotton calli; Expt 2 pMON10079, 1 μM): 40%

O=C1O[C@H]([C@@H](O)CO)C(O)=C1O [Ascorbic Acid, ascorbic acid]
effect on frequency of embryogenesis ([1]; Coker 312, two independent experiments): increase the frequency of embryogenesis | % Embryogenic Calli Transfer 1 [1, 2]: 3% | % Embryogenic Calli Transfer 2 [1, 2]: 31% | Total Frequency of Embryogenesis [1, 2]: 34%

OC[C@H]1O[C@@](CO)(O[C@H]2O[C@H](CO)[C@@H](O)[C@H](O)[C@H]2O)[C@@H](O)[C@@H]1O [sucrose]
# Plantlets with Expanded Leaves (cotton embryos; [3]): 7 | Transformation Frequency (cotton embryos; [3]): 47% | # Plantlets with Expanded Leaves (cotton embryos; [4]): 10 | Transformation Frequency (cotton embryos; [4]): 43% | # Plantlets with Expanded Leaves (cotton embryos; [5]): 6 | Transformation Frequency (cotton embryos; [5]): 27% | # Plantlets with Expanded Leaves (cotton embryos; [6]): 5 | Transformation Frequency (cotton embryos; [6]): 28% | effect on frequency of embryo germination and plantlet formation (cotton embryos; concentrations ranging from about 0% to 0.5% (w/v) in germination media): significantly increased the frequency of embryo germination and plantlet formation

— US20040087030A1, “Method for the regeneration of cotton” (priority 1998, published 2004)
